Here are results for 21 compounds from patent US20150166523A1, “BRANCHED CHAIN ALKYL HETEROAROMATIC RING DERIVATIVE” (TAISHO PHARMACEUTICAL CO., LTD., priority 2012, published 2015).

For orientation: IC50 means the concentration needed to halve the response being measured.

The target in test [1] is T1, human orexin-1 receptor (hOX1R) (Homo sapiens, UniProt O43613).
T1 construct: expressed in transfected cells; host or cells: Chinese hamster ovary (CHO) cells
T1 sequence (O43613 1-425): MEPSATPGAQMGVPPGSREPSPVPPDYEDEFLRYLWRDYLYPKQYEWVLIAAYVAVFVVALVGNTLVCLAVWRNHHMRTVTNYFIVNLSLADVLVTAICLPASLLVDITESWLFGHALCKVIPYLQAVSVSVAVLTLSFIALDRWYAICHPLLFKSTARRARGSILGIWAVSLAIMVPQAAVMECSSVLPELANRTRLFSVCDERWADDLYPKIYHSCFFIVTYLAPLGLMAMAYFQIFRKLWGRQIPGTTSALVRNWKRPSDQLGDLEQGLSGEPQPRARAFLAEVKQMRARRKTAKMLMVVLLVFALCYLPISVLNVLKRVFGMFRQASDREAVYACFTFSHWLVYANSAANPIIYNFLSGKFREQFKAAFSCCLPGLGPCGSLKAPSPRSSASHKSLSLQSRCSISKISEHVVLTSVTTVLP
In words: Measurement of orexin antagonistic activity (intracellular Ca2+ fluorescence, FDSS) on hOX1R. Format: cell-based. Conditions: CHO cells forcibly expressing hOX1R; Fluo-4AM; ligand peptide (substituted human orexin-A) 300 pM; compound preincubated 30 minutes; read-out: IC50 Value OX1. Here is the method:
(§1) The antagonistic activities of the test compounds on human orexin-1 receptor (hOX1R) and orexin-2 receptor (hOX2R) were measured by modifying from the method described in literature (Toshikatsu Okumura et al., Biochemical and Biophysical Research Communications, 280, 976-981, 2001). Chinese hamster ovary (CHO) cells forcibly expressing the hOX1R and hOX2R were seeded into a 96 well Black clear bottom plate (Nunc) at 20,000 cells per well, which were cultured in Ham's F-12 medium containing 0.1 mM MEM non-essential amino acids, 0.5 mg/mL G418, 10% fetal bovine serum (all by Invitrogen) for 16 hours under the conditions of 37° C., 5% CO2. After removing the medium, 100 μL of 0.5 μM Fluo-4AM ester (Dojin) in an assay buffer (25 mM HEPES (Dojin), Hank's balanced salt solution (Invitrogen), 0.1% bovine serum albumin, 2.5 mM probenecid, 200 μg/mL Amaranth (all by Sigma-Aldrich), pH 7.4) was added and the cells were incubated for 60 minutes at 37° C., 5% CO2. After removing the assay buffer containing fluo-4AM ester, the test compound was dissolved in dimethyl sulfoxide to be 10 mM and diluted with the assay buffer, 150 μL, of which was added and incubated for 30 minutes.
(§2) The reaction was measured for the fluorescence intensity of each well every second for 3 minutes using Functional Drug Screening System (FDSS; Hamamatsu Photonics K.K.), and the antagonistic activity was determined using the maximum fluorescence intensity as the indicator of intracellular Ca2+ concentration.

Test [2] concerns the target T2, orexin-2 receptor (hOX2R) (Homo sapiens, UniProt O43614).
T2 construct: expressed in transfected cells; host or cells: Chinese hamster ovary (CHO) cells
T2 sequence (O43614 1-444): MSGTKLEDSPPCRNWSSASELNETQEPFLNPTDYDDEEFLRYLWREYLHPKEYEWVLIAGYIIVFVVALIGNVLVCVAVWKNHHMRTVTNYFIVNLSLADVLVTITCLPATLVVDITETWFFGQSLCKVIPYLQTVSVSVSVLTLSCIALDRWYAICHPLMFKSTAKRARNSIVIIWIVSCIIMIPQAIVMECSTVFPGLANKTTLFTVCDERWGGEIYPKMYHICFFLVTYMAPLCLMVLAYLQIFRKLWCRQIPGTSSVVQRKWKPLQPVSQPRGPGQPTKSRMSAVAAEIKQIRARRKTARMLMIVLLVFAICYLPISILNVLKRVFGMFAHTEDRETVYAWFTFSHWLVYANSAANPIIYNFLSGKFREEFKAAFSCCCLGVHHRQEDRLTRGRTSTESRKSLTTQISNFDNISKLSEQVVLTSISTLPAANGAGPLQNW
In words: Measurement of orexin antagonistic activity (intracellular Ca2+ fluorescence, FDSS) on hOX2R. Format: cell-based. Conditions: CHO cells forcibly expressing hOX2R; Fluo-4AM; ligand peptide (substituted human orexin-A) 3 nM; compound preincubated 30 minutes; read-out: IC50 Value OX2. Here is the method:
as §1, §2

`COCCN(C(=O)c1cc(C)ccc1-n1nccn1)[C@@H](C)Cn1ccc(-c2ccc(F)cn2)n1` [Example 40, N-{(2S)-1-[3-(5-Fluoropyridin-2-yl)-1H-pyrazol-1-yl]propan-2-yl]}-N-(2-methoxyethyl-5-methyl-2-(2H-1,2,3-triazol-2-yl)benzamide]: the figures for the IC50 in test [1] and in test [2] were 1.4 nM and 12.4 nM, respectively.

Consider `CCN(C(=O)c1cc(C)ccc1-c1ncccn1)[C@@H](C)Cc1noc(-c2ccc(F)cc2)n1` [Example 55, N-Ethyl-N-{(2S)-1-[5-(4-fluorophenyl)-1,2,4-oxadiazol-3-yl]propan-2-yl}-5-methyl-2-(pyrimidin-2-yl)benzamide], for which the IC50 was determined as 1.4 nM in test [1] and 9.4 nM in test [2].

Regarding `CCN(C(=O)c1c(F)cccc1-c1ncccn1)[C@@H](C)Cn1ccc(-c2ccc(F)cc2)n1` [Example 13, N-Ethyl-2-fluoro-N-[(2S)-1-[3-(4-fluorophenyl)-1H-pyrazol-1-yl]propan-2-yl)-6-(pyrimidin-2-yl)benzamide], the figures for the IC50 in test [1] and in test [2] were 1.9 nM and 53.9 nM, respectively.

With `CCN(C(=O)c1cc(C)ccc1-c1ncccn1)[C@@H](C)Cn1nnc(-c2ccc(F)cn2)n1` [Example 88, N-Ethyl-N-{(2S)-1-[5-(5-fluoropyridin-2-yl)-2H-tetrazol-2-yl]propan-2-yl}-5-methyl-2-(pyrimidin-2-yl)benzamide], the IC50 in test [1] was determined as 13.4 nM; in test [2] it was 41.2 nM.

Turning to `CCN(C(=O)c1cc(C)ccc1-n1nccn1)[C@@H](C)Cn1cc(-c2ccccn2)nn1` [Example 94, N-Ethyl-5-methyl-N-{(2S)-1-[4-(pyridin-2-yl)-1H-1,2,3-triazol-1-yl]propan-2-yl}-2-(2H-1,2,3-triazol-2-yl) benzamide], the IC50 in test [1] came out at 9.3 nM; in test [2], 108 nM.

Take `Cc1ccc(-n2nccn2)c(C(=O)N(CCO)[C@@H](C)Cn2nnc(-c3ccc(F)cc3)n2)c1` [Example 64, N-{(2S)-1-[5-(4-Fluorophenyl)-2H-tetrazol-2-yl]propan-2-yl}-N-(2-hydroxyethyl)-5-methyl-2-(2H-1,2,3-triazol-2-yl)benzamide]: the IC50 turned out to be 1 nM in test [1] and 47.9 nM in test [2].

In the case of `CCN(C(=O)c1cc(C)ccc1-n1nccn1)[C@@H](C)Cc1noc(-c2ccc(F)cc2)n1` [Example 61], the concentration for half-maximal inhibition (IC50) came out at 0.7 nM in test [1] and 3.3 nM in test [2].

For `CCN(C(=O)c1cc(C)ccc1-n1nccn1)C(C)Cc1cnn(-c2ccc(F)cn2)c1` (stereo not drawn) [Example 74, N-Ethyl-N-{1-[1-(5-fluoropyridin-2-yl)-1H-pyrazol-4-yl]propan-2-yl}-5-methyl-2-(2H-1,2,3-triazol-2-yl)benzamide], the figures for the concentration for half-maximal inhibition (IC50) in test [1] and in test [2] were 1.3 nM and 13.1 nM, respectively.

For `COCCN(C(=O)c1cc(C)ccc1-n1nccn1)[C@@H](C)Cn1cc(-c2ccc(F)cn2)cn1` [Example 38, N-{(2S)-1-[4-(5-Fluoropyridin-2-yl)-1H-pyrazol-1-yl]propan-2-yl}-N-(2-methoxyethyl)-5-methyl-2-(2H-1,2,3-triazol-2-yl)benzamide], the IC50 in test [1] came to 25.5 nM; in test [2], 351 nM.

In the case of `CCN(C(=O)c1ccccc1-n1nccn1)[C@@H](C)Cn1cc(-c2ccc(F)cn2)cn1` [Example 21, N-Ethyl-N-{(2S)-1-[4-(5-fluoropyridin-2-yl)-1H-pyrazol-1-yl]propan-2-yl}-2-(2H-1,2,3-triazol-2-yl)benzamide], the results for the half-maximal inhibitory concentration (IC50) in test [1] and in test [2] were 8.1 nM and 188 nM, respectively.

Regarding `CCN(C(=O)c1cc(C)ccc1-n1nccn1)[C@H](C)Cn1ccc(-c2ccc(F)cn2)n1` [Example 2, N-Ethyl-N-{(2R)-1-[3-(5-fluoropyridin-2-yl)-1H-pyrazol-1-yl]propan-2-yl]-5-methyl-2-(2H-1,2,3-triazol-2-yl) benzamide], the IC50 in test [1] came to 17.4 nM; in test [2], 186 nM.

As to `CCN(C(=O)c1ccccc1-n1nccn1)[C@@H](C)Cn1nnc(-c2ccc(F)cc2)n1` [Example 67], the concentration for half-maximal inhibition (IC50) in test [1] was 1.8 nM; in test [2], 75.9 nM.

For `Cc1ccc(-n2nccn2)c(C(=O)N(C)[C@@H](C)Cn2cc(-c3ccc(F)cn3)cn2)c1` [Example 22, N-{(2S)-1-[4-(5-Fluoropyridin-2-yl)-1H-pyrazol-1-yl]propan-2-yl}-N,5-dimethyl-2-(2H-1,2,3-triazol-2-yl) benzamide], the 50% inhibitory concentration (IC50) in test [1] was determined as 3.8 nM; in test [2], 52.9 nM.

For `CCN(C(=O)c1nc(C)ccc1-c1ncccn1)[C@@H](C)Cn1cc(-c2ccc(F)cn2)nn1` [Example 80, N-Ethyl-N-{(2S)-1-[4-(5-fluoropyridin-2-yl)-1H-1,2,3-triazol-1-yl]propan-2-yl}-6-methyl-3-(pyrimidin-2-yl)pyridine-2-carboxamide], the IC50 stood at 687 nM in test [1] and 7810 nM in test [2].

For the compound `CCN(C(=O)c1ccccc1-n1nccn1)[C@@H](C)Cc1noc(-c2ccc(F)cn2)n1` [Example 56, N-Ethyl-N-{(2S)-1-[5-(5-fluoropyridin-2-yl)-1,2,4-oxadiazol-3-yl]propan-2-yl}-2-(2H-1,2,3-triazol-2-yl)benzamide], the IC50 in test [1] came to 5 nM; in test [2], 602 nM.

Take `CCN(C(=O)c1cc(F)ccc1-c1ncccn1)[C@@H](C)Cn1cc(-c2ccc(F)c(F)c2)cn1` [Example 31, N-{(2S)-1-[4-(3,4-Difluorophenyl)-1H-pyrazol-1-yl]propan-2-yl}-N-ethyl-5-fluoro-2-(pyrimidin-2-yl)benzamide]: the IC50 amounted to 1 nM in test [1] and 10.2 nM in test [2].

In the case of `CCN(C(=O)c1cc(C)ccc1-n1nccn1)[C@@H](C)Cn1cc(-c2ccc(O)cc2)nn1` [Example 100, N-Ethyl-N-{(2S)-1-[4-(4-hydroxyphenyl)-1H-1,2,3-triazol-1-yl]propan-2-yl}-5-methyl-2-(2H-1,2,3-triazol-2-yl)benzamide], the results for the 50% inhibitory concentration (IC50) in test [1] and in test [2] were 10.4 nM and 774 nM, respectively.

Turning to `C[C@@H](Cn1ccc(-c2ccc(F)cn2)n1)N(C)C(=O)c1ccccc1-n1nccn1` [Example 20, N-{(2S)-1-[3-(5-Fluoropyridin-2-yl)-1H-pyrazol-1-yl]propan-2-yl}-N-methyl-2-(2H-1,2,3-triazol-2-yl)benzamide], the half-inhibitory concentration (IC50) in test [1] was found to be 3.4 nM; in test [2] it was 55.9 nM.

As to `Cc1ccc(-n2nccn2)c(C(=O)N(CCO)[C@@H](C)Cn2ccc(-c3ccc(F)cn3)n2)c1` [Example 44, N-{(2S)-1-[3-(5-Fluoropyridin-2-yl)-1H-pyrazol-1-yl]propan-2-yl}-N-(2-hydroxyethyl)-5-methyl-2-(2H-1,2,3-triazol-2-yl)benzamide], the half-inhibitory concentration (IC50) in test [1] is 1.3 nM; in test [2], 25.9 nM.

In the case of `CCN(C(=O)c1cc(F)ccc1-c1ncccn1)[C@@H](C)Cc1noc(-c2ccc(F)cc2)n1` [Example 53, N-Ethyl-5-fluoro-N-{(2S)-1-[5-(4-fluorophenyl)-1,2,4-oxadiazol-3-yl]propan-2-yl}-2-(pyrimidin-2-yl) benzamide], the 50% inhibitory concentration (IC50) was determined as 6.6 nM in test [1] and 75.6 nM in test [2].

`CCN(C(=O)c1nc(C)ccc1-n1nccn1)[C@@H](C)Cc1noc(-c2ccc(F)cn2)n1` [Example 58, N-Ethyl-N-{(2S)-1-[5-(5-fluoropyridin-2-yl)-1,2,4-oxadiazol-3-yl]propan-2-yl}-6-methyl-3-(2H-1,2,3-triazol-2-yl) pyridine-2-carboxamide]: the concentration for half-maximal inhibition (IC50) in test [1] came out at 22.2 nM; in test [2], 1620 nM.
